The compounds below were run against T1, human PPAR α (Homo sapiens, UniProt Q07869) (assay: Exogeneous PPAR α agonist assay (GAL4 DNA binding domain/PPAR α ligand binding domain, luciferase) in 293T cells). Settings: 25 μM compound, 48 hours, luciferase activity increase relative to the control.
T1 construct: expressed in transfected cells; host or cells: HepG2 (ATCC HB-8065) or 293T cells (ATCC CRL-1573)
T1 sequence (Q07869 239-466 limits assumed): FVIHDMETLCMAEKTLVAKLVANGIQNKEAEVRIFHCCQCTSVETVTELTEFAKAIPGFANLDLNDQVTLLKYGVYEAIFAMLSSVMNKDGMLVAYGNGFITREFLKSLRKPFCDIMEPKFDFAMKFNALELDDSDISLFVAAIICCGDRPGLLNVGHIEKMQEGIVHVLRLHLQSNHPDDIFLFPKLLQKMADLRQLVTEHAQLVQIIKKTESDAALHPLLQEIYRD
Format: cell-based
Parameters: scale not given here
Description: Step 1) Exogeneous PPAR α Agonist Assay
Cross-activation assay of the compounds of Examples 1 to 134 against human PPAR α was carried out using a DNA construct of PPAR α including its ligand binding domain and GAL4 DNA binding domain (Sher et al., Biochemistry 32, 5598-5604, 1993) to analyze whether any of the compounds binds to the ligand binding domain of PPAR α expressed by the construct to affect the PPAR α activity. When the GAL4 DNA binding domainm which is fused with PPAR α ligand binding domain, binds to UAS (upstream activation sequence) of firefly-luciferase, the luciferase is expressed. Therefore, the effect of each of the compounds of Examples on PPAR α activation can be evaluated by analyzing the activation of luciferase.
Specifically, 2×10^4 of HepG2 (ATCC HB-8065) or 293T cells (ATCC CRL-1573) were aliquotted into each well of a 96-well plate and cultured for overnight at 37° C. in a CO2 incubator (culture condition: DMEM, 10% FBS and 1% antibiotics).
The transformation of PPAR α DNA was traced as follows. First, a mixture of the following ingredients in amounts per well; Solution A (Promega) containing 50 ng of full length human PPAR α DNA, 50 ng of firefly-luciferase construct, 5 ng of Renilla-luciferase construct, 1.0 μl of PLUS™ reagent, and 8.3 μl of a serum-free medium containing no antibiotics; was prepared and kept at room temperature for 15 min. Solution B, which contained 0.5 μl of Lipofectamine™ reagent and 9.5 μl of serum-free medium without antibiotics per well, and Solution C, which contained 50 μl of serum-free medium per well), were prepared. Solutions A, B and C were mixed together to prepare lipofectamin-DNA complex, and the mixture was kept at room temperature for 15 min. Single layer of cells on each well of a 96-well plate were washed with serum-free DMEM, 70 μl of lipofectamine-DNA complex prepared above was added thereto, the plate was incubated at 37° C. in a 5% CO2 incubator for 3 hours to transform the cells, and […] of a diluted solution of each of the compounds of Examples 1 to 134 per well was added to each well to a final concentration 25 μM, and incubated at 37° C. in a CO2 incubator for 48 hours. Then, the medium was removed, 50 μl of passive lysis buffer (Promega) was added thereto, and the plate was shook at room temperature for 20 min to lysis cells. 40 μl of Luciferase Assay reagent of Dual Luciferase Kit […] per 20 μl of cell lysis buffer was added to the plate, followed by reacting at 20° C. for 8 seconds, and 40 μl of Stop & Glo reagent (Promega) as a stop solution was added thereto to quench the reaction. The luminescence intensities of F-luciferase and R-luciferase were measured with MicroLumat Plus (Berthord Technology).

Row | Structure (SMILES) | Activity at 25 μM Step 1 293T cell
1 | Cc1ccc(-c2nc(CCOc3ccc(CN(CC(=O)O)S(=O)(=O)N(C)c4ccc(Cl)cc4)cc3)c(C)o2)cc1 [Example 110, [N—[[N-methyl-N-(4-chlorophenyl)]amino]sulfonyl-N-[4-[2-[2-(4-methylphenyl)-5-methyloxazol-4-yl]ethoxy]benzyl]amino]acetic acid] | 2
2 | Cc1oc(-c2ccc(C(F)(F)F)cc2)nc1CCOc1ccc(CN(CC(=O)O)S(=O)(=O)N(C)C)cc1 [Example 103, [N—(N,N-dimethylamino)sulfonyl-N-[4-[2-[2-(4-trifluoromethylphenyl)-5-methyloxazol-4-yl]ethoxy]benzyl]amino]acetic acid] | 2
3 | Cc1oc(-c2ccc(C(F)(F)F)cc2)nc1COc1ccc(CN(CC(=O)O)S(=O)(=O)N(C)C)cc1 [Example 40, [N—(N,N-dimethylamino)sulfonyl-N-[4-[[2-(4-trifluoromethylphenyl)-5-methyloxazol-4-yl]methoxy]benzyl]amino]acetic acid] | 2
4 | Cc1ccc(-c2nc(CCOc3ccc(CN(CC(=O)O)S(=O)(=O)N4CCCc5ccccc54)cc3)c(C)o2)cc1 [Example 121, [N-(1,2,3,4-tetrahydroquinolinyl)sulfonyl-N-[4-[2-[2-(4-methylphenyl)-5-methyloxazol-4-yl]ethoxy]benzyl]amino]acetic acid] | 2
5 | Cc1nc(-c2ccc(C(F)(F)F)cc2)oc1COc1cccc(CN(CC(=O)O)S(=O)(=O)N(C)C)c1 [Example 13, [N—(N,N-dimethylamino)sulfonyl-N-[3-[[2-(4-trifluoromethylphenyl)-4-methyloxazol-5-yl]methoxy]benzyl]amino]acetic acid] | 2
6 | Cc1oc(-c2ccccc2)nc1CCOc1ccc(CN(CC(=O)O)S(=O)(=O)N(C)C)cc1 [Example 98, [N—(N,N-dimethylamino)sulfonyl-N-[4-[2-(2-phenyl-5-methyloxazol-4-yl)ethoxy]benzyl]amino]acetic acid] | 1
7 | Cc1oc(-c2ccc(C(F)(F)F)cc2)nc1CCOc1ccc(CN(CC(=O)O)S(=O)(=O)N(C)c2ccc(Cl)cc2)cc1 [Example 114, [N—[[N-methyl-N-(4-chlorophenyl)]amino]sulfonyl-N-[4-[2-[2-(4-trifluoromethylphenyl)-5-methyloxazol-4-yl]ethoxy]benzyl]amino]acetic acid] | 2
8 | Cc1oc(-c2ccc(C(F)(F)F)cc2)nc1COc1ccc(CN(CC(=O)O)S(=O)(=O)N2CCCc3ccccc32)cc1 [Example 59, [N-(1,2,3,4-tetrahydroquinolinyl)sulfonyl-N-[4-[[2-(4-trifluoromethylphenyl)-5-methyloxazol-4-yl]methoxy]benzyl]amino]acetic acid] | 3
9 | Cc1oc(-c2cccs2)nc1CCOc1ccc(CN(CC(=O)O)S(=O)(=O)N2CCc3ccccc32)cc1 [Example 119, [N-(indolinyl)sulfonyl-N-[4-[2-[2-(thiophen-2-yl)-5-methyloxazol-4-yl]ethoxy]benzyl]amino]acetic acid] | 2
10 | Cc1oc(-c2cccs2)nc1COc1cccc(CN(CC(=O)O)S(=O)(=O)N(C)C)c1 [Example 12, [N—(N,N-dimethylamino)sulfonyl-N-[3-[[2-(thiophen-2-yl)-5-methyloxazol-4-yl]methoxy]benzyl]amino]acetic acid] | 2
11 | Cc1oc(-c2ccccc2)nc1CCOc1ccc(CN(CC(=O)O)S(=O)(=O)N2CCCc3ccccc32)cc1 [Example 120, [N-(1,2,3,4-tetrahydroquinolinyl)sulfonyl-N-[4-[2-(2-phenyl-5-methyloxazol-4-yl)ethoxy]benzyl]amino]acetic acid] | 2
12 | Cc1oc(-c2ccccc2)nc1COc1cccc(CN(CC(=O)O)S(=O)(=O)N2CCc3ccccc32)c1 [Example 30, [N-(indolinyl)sulfonyl-N-[3-[(2-phenyl-5-methyloxazol-4-yl)methoxy]benzyl]amino]acetic acid] | 2
13 | Cc1ccc(-c2nc(COc3ccc(CN(CC(=O)O)S(=O)(=O)N(C)C)cc3)c(C)o2)cc1 [Example 39, [N—(N,N-dimethylamino)sulfonyl-N-[4-[[2-(4-methylphenyl)-5-methyloxazol-4-yl]methoxy]benzyl]amino]acetic acid] | 2
14 | Cc1oc(-c2ccc(C(F)(F)F)cc2)nc1CCOc1ccc(CN(CC(=O)O)S(=O)(=O)N2CCCc3ccccc32)cc1 [Example 122, [N-(1,2,3,4-tetrahydroquinolinyl)sulfonyl-N-[4-[2-[2-(4-trifluoromethylphenyl)-5-methyloxazol-4-yl]ethoxy]benzyl]amino]acetic acid] | 2
15 | Cc1oc(-c2cccs2)nc1CCOc1ccc(CN(CC(=O)O)S(=O)(=O)N(C)c2ccc(Cl)cc2)cc1 [Example 115, [N—[[N-methyl-N-(4-chlorophenyl)]amino]sulfonyl-N-[4-[2-[2-(thiophen-2-yl)-5-methyloxazol-4-yl]ethoxy]benzyl]amino]acetic acid] | 2
16 | Cc1ccc(-c2nc(COc3cccc(CN(CC(=O)O)S(=O)(=O)N(C)c4ccc(Cl)cc4)c3)c(C)o2)cc1 [Example 19, [N—[[N-methyl-N-(4-chlorophenyl)]amino]sulfonyl-N-[3-[[2-(4-methylphenyl)-5-methyloxazol-4-yl]methoxy]benzyl]amino]acetic acid] | 2
17 | Cc1oc(-c2ccc(C(F)(F)F)cc2)nc1CCOc1ccc(CN(CC(=O)O)S(=O)(=O)N2CCc3ccccc32)cc1 [Example 118, [N-(indolinyl)sulfonyl-N-[4-[2-[2-(4-trifluoromethylphenyl)-5-methyloxazol-4-yl]ethoxy]benzyl]amino]acetic acid] | 2
18 | Cc1ccc(-c2nc(COc3ccc(CN(CC(=O)O)S(=O)(=O)N(C)c4ccc(Cl)cc4)cc3)c(C)o2)cc1 [Example 50, [N—[[N-methyl-N-(4-chlorophenyl)]amino]sulfonyl-N-[4-[[2-(4-methylphenyl)-5-methyloxazol-4-yl]methoxy]benzyl]amino]acetic acid] | 2
19 | Cc1oc(-c2ccccc2)nc1COc1cccc(CN(CC(=O)O)S(=O)(=O)N(C)c2ccccc2)c1 [Example 14, [N—[(N-methyl-N-phenyl)amino]sulfonyl-N-[3-[(2-phenyl-5-methyloxazol-4-yl)methoxy]benzyl]amino]acetic acid] | 2
20 | Cc1oc(-c2cccs2)nc1CCOc1ccc(CN(CC(=O)O)S(=O)(=O)N(C)c2ccccc2)cc1 [Example 108] | 2
21 | Cc1oc(-c2cccs2)nc1COc1ccc(CN(CC(=O)O)S(=O)(=O)N(C)c2ccccc2)cc1 [Example 48, [N—[(N-methyl-N-phenyl)amino]sulfonyl-N-[4-[[2-(thiophen-2-yl)-5-methyloxazol-4-yl]methoxy]benzyl]amino]acetic acid] | 2
22 | Cc1ccc(-c2nc(CCOc3ccc(CN(CC(=O)O)S(=O)(=O)NC(C)(C)C)cc3)c(C)o2)cc1 [Example 100, [N—(N-t-butylamino)sulfonyl-N-[4-[2-[2-(4-methylphenyl)-5-methyloxazol-4-yl]ethoxy]benzyl]amino]acetic acid] | 2
23 | Cc1oc(-c2ccccc2)nc1CCOc1cccc(CN(CC(=O)O)S(=O)(=O)N(C)C)c1 [Example 61, [N—(N,N-dimethylamino)sulfonyl-N-[3-[2-(2-phenyl-5-methyloxazol-4-yl)ethoxy]benzyl]amino]acetic acid] | 2
